Like-named read-outs stand apart in the source and are kept apart here.
Columns and labels:
LXRβ [1] = target: T1, LXRβ (Homo sapiens, UniProt P55055); assay: LXR Gal4 reporter transient transfection assay (mammalian two-hybrid, HEK293), LXRβ; format: cell-based; parameters: LXRβ (amino acids 156-461); expressed in transfected cells; host or cells: HEK293; conditions: full length (FL) LXRβ, HEK293; read-out: FL-M2H Gal4β
T1 sequence (P55055 1-460): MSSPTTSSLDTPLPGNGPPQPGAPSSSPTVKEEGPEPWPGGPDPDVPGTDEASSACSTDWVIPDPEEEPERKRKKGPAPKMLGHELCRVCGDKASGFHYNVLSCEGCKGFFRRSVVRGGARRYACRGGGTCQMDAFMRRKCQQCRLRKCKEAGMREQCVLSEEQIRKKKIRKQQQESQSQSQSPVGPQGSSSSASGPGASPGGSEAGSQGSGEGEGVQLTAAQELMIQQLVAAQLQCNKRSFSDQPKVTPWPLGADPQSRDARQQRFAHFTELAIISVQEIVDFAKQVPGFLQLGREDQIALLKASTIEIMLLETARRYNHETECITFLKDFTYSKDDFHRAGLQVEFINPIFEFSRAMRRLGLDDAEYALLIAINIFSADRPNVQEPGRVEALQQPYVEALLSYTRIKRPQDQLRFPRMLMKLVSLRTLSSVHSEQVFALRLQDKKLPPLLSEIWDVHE
Summary of the method: (§1)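 Mammalian two-hybrid read-out of LXR–coactivator (SRC1) or corepressor (NCoR) interaction: firefly luciferase under GAL4 response elements, normalised via Renilla co-transfection. LXRα/β full-length or LBD fusions expressed transiently in HEK293; compounds (final DMSO ≤0.2%) given 4 h after transfection for 16 h before lysis.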

LXRα [2] = target: T2, LXRα (Homo sapiens, UniProt Q13133); assay: LXR Gal4 reporter transient transfection assay (mammalian two-hybrid, HEK293), LXRα; format: cell-based; parameters: expressed in transfected cells; host or cells: HEK293; conditions: full length (FL) LXRα, HEK293; read-out: FL-M2H Gal4α
T2 sequence (Q13133 1-447): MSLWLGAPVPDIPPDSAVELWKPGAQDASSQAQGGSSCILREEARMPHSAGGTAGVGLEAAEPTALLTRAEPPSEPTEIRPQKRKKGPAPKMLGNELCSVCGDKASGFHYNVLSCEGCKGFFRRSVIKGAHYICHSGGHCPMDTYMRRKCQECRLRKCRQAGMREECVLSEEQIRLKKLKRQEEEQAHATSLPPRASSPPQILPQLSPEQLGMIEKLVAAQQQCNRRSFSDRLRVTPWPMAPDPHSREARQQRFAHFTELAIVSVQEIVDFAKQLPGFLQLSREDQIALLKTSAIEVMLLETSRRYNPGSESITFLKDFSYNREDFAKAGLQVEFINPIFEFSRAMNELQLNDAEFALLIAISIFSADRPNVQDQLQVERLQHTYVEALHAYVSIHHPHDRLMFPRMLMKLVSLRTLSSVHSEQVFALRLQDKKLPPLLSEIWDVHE
Method: (§2) LXRα and LXRβ activity status was determined via detection of interaction with coactivator and corepressor proteins in mammalian two-hybrid experiments (M2H). For this, via transient transfection the full length (FL) proteins of LXRα (amino acids 1-447; NP005684; SEQ ID NO:1) or LXRβ-(amino acids 1-461; NP009052; SEQ ID NO:2) or the ligand-binding domains (LBD) of LXRα (amino acids 155-447 SEQ ID NO:3) or LXRβ (amino acids 156-461; SEQ ID NO:4) were expressed from pCMV-AD (Stratagene) as fusions to the transcriptional activation domain of NFkB. As cofactors, domains of either the steroid receptor coactivator 1 (SRC1; amino acids 552-887; SEQ ID NO:5) or of the corepressor NCoR (amino acids 1906-2312; NP006302; SEQ ID NO:6) were expressed as fusions to the DNA binding domain of the yeast transcription factor GAL4 (from pCMV-BD; Stratagene). Interaction was monitored via activation of a coexpressed Firefly Luciferase Reporter gene under control of a promoter containing repetitive GAL4 response elements (vector pFRLuc; Stratagene). Transfection efficiency was controlled via cotransfection of constitutively active pRL-CMV Renilla reniformis luciferase reporter (Promega). HEK293 cells were grown in minimum essential medium (MEM) with 2 mM L-glutamine and Earle's balanced salt solution supplemented with 8.3% fetal bovine serum, 0.1 mM non-essential amino acids, 1 mM sodium pyruvate, at 37° C. in 5% CO2. 3.5×10^4 cells/well were plated in 96-well cell culture plates in growth medium supplemented with 8.3% fetal bovine serum for 16-20 h to ˜90% confluency. For transfection, medium was taken off and LXR and cofactor expressing plasmids as well as the reporter plasmids are added in 30 μL OPTIMEM/well including polyethylene-imine (PEI) as vehicle. Typical amounts of plasmids transfected/well: pCMV-AD-LXR (5 ng), pCMV-BD-cofactor (5 ng), pFR-Luc (100 ng), pRL-CMV (0.5 ng). Compound stocks were prepared in DMSO, prediluted in MEM to a total volume of 120 μL, and added 4 h after addition of the transfection mixture (final vehicle concentration not exceeding 0.2%). Cells were incubated for additional 16 h, lysed for 10 min in 1×Passive Lysis Buffer (Promega) and Firefly and Renilla luciferase activities were measured sequentially in the same cell extract using buffers containing D-luciferine and coelenterazine, respectively. Measurements of luminescence were done in a BMG-luminometer.
(§3) The potencies of Compound 21/3 and its analog, Compound pre-6/3, against LXRα and LXRβ were evaluated in biochemical binding assays, cellular mammalian two-hybrid (M2H) interaction assays evaluating nuclear receptor co-repressor (NCOR) recruitment, and cellular reporter assays evaluating transcriptional activity (Table 5).

[3] = Pharmacokinetics in mice after single oral dosing (blood/plasma and liver exposure); format: in vivo; conditions: 20 mg/kg single oral dose
Method: The pharmacokinetics of the compounds was assessed in mice after single dosing and oral administrations. Blood/plasma and liver exposure was measured via LC-MS.
The study design was as follows: • Animals: C57/bl6/J (Janvier) males • Diet: standard rodent chow • Dose: 20 mg/kg • Animal handling: animals were withdrawn from food at least 12 h before administration • Design: single dose oral administration, n=3 animals per group • Sacrifice: at stated time point (4, 12 or 24 h) after administration • Bioanalytics: LC-MS of liver and blood/plasma samples

LXRα [4] = target: T3, LXRα (Homo sapiens, UniProt Q13133); assay: LXR Gal4 reporter transient transfection assay (mammalian two-hybrid, HEK293), LXRα; format: cell-based; conditions: HEK293, NCOR recruitment, mean ± SD; read-out: HEK293 LXRα/NCOR recruitment (M2H) EC50
T3 construct: full length (FL) proteins of LXRα (amino acids 1-447); NP005684
Method: as §2, §3

LXRβ [5] = target: LXRβ (Homo sapiens, UniProt P55055); assay: LXR Gal4 reporter transient transfection assay (mammalian two-hybrid, HEK293), LXRβ; format: cell-based; conditions: HEK293, NCOR recruitment, mean ± SD; read-out: HEK293 LXRβ/NCOR recruitment (M2H) EC50
Summary of the method: as §1
Target sequence in this assay (O75376 1906-2312 partner, one chain of several): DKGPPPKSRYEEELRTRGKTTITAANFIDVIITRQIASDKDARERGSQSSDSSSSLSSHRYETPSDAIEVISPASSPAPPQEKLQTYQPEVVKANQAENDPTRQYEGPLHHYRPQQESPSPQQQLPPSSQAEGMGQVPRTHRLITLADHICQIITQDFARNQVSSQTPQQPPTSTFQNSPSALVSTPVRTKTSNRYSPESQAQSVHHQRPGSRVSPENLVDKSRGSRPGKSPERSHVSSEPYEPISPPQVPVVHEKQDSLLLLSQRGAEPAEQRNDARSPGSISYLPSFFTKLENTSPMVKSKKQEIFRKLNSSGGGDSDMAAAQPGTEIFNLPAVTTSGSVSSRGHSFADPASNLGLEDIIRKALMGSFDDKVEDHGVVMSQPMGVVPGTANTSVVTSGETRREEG

Row | SMILES | EC50 (LXRβ [1]) [µM] | also measured
1 | N#Cc1cccc(C#N)c1-c1c(-c2cccc(-c3c(F)cc(CC(=O)O)cc3F)c2)n(S(=O)(=O)c2ccc(C(F)F)cc2)c2ccc(F)cc12 [3/73] | < 0.1 | 
2 | N#Cc1cccc(C#N)c1-c1c(-c2cccc(-c3cc(F)c(C(=O)O)cc3Cl)c2)n(S(=O)(=O)c2ccc(C(F)F)cc2)c2ccc(F)cc12 [11/65] | < 0.1 | 
3 | CS(=O)(=O)NC(=O)c1ccc(-c2cccc(-c3c(-c4c(C#N)cccc4C#N)c4cc(F)ccc4n3S(=O)(=O)c3ccc(C(F)F)cc3)c2)c(Cl)c1 [32/5] | < 0.1 | EC50 (LXRα [2]): < 0.1 µM
4 | CC(=O)NS(=O)(=O)c1ccc(-c2cccc(-c3c(-c4c(C#N)cccc4C#N)c4cc(F)ccc4n3S(=O)(=O)c3ccc(C(F)F)cc3)c2)c(Cl)c1 [8/8] | < 0.1 | 
5 | O=C(O)c1ccc(-c2cccc(-c3c(-c4c(Cl)cccc4Cl)c4cc(F)ccc4n3S(=O)(=O)c3ccc(C(F)F)cc3)c2)c(Cl)c1 [11/13] | < 0.1 | 
6 | N#Cc1cccc(C#N)c1-c1c(-c2cccc(-c3ccc(C(=O)NCCS(=O)(=O)O)cc3Cl)c2)n(S(=O)(=O)c2ccc(C(F)F)cc2)c2ccc(F)cc12 [10/1] | < 0.1 | 
7 | N#Cc1ccccc1-c1c(-c2cccc(-c3ccc(C(=O)O)cc3Cl)c2)n(S(=O)(=O)c2ccc(C(F)F)cc2)c2ccc(F)cc12 [11/33] | < 0.1 | 
8 | Cc1ccc(S(=O)(=O)n2c(-c3cccc(C45CCC(C(=O)O)(CC4)CC5)c3)c(-c3ccsc3C#N)c3cc(F)ccc32)cc1 [3/64] | < 0.1 | 
9 | N#Cc1sccc1-c1c(-c2cccc(-c3ccc(C(=O)O)cc3Cl)c2)n(S(=O)(=O)c2ccc(C(F)(F)F)nc2)c2ccc(F)cc12 [11/16] | < 0.1 | 
10 | Cc1ccc(S(=O)(=O)n2c(-c3cccc(-c4ccc(C(=O)O)cc4)c3)c(-c3ccsc3C#N)c3cc(F)ccc32)cc1C [23/2] | < 0.1 | blood/plasma exposure ([3]; time point 4 h): B (300 nM to ≤1 μM); liver exposure ([3]; time point 4 h): D (>3 μM); liver/blood ratio ([3]; time point 4 h): C (10 to ≤30)
11 | N#Cc1cccc(C#N)c1-c1c(-c2cccc(-c3c(F)cc(C(=O)O)cc3F)c2)n(S(=O)(=O)c2ccc(C(F)F)cc2)c2ccc(F)cc12 [11/53] | < 0.1 | 
12 | N#Cc1ccccc1-c1c(-c2cccc(-c3ccc(C(=O)O)cc3Cl)c2)n(S(=O)(=O)c2ccc(C(F)F)cc2)c2cnccc12 [11/49] | < 0.1 | 
13 | N#Cc1cccc(C#N)c1-c1c(-c2cccc(-c3ccc(C(=O)O)cc3Cl)c2)n(S(=O)(=O)c2ccc(C(F)(F)F)nc2)c2ccc(F)cc12 [11/37] | < 0.1 | 
14 | N#Cc1cccc(C#N)c1-c1c(-c2cccc([C@H]3CC[C@H](C(=O)O)CC3)c2)n(S(=O)(=O)c2ccc(C(F)F)cc2)c2ccc(F)cc12 [11/62] | < 0.1 | EC50 (LXRα [2]): < 0.1 µM
15 | Cc1ccc(S(=O)(=O)n2c(-c3cccc(-c4ccc(C(=O)O)cc4)c3)c(-c3ccsc3C#N)c3cc(F)ccc32)cc1 [5/3] | < 0.1 | blood/plasma exposure ([3]; time point 4 h): C (100 nM to <300 nM); liver exposure ([3]; time point 4 h): C (1 μM to ≤3 μM); liver/blood ratio ([3]; time point 4 h): C (10 to ≤30)
16 | N#Cc1cccc(C#N)c1-c1c(-c2cccc(-c3ccc(C(=O)O)cc3Cl)c2)n(S(=O)(=O)C2CCC(F)(F)CC2)c2ccc(F)cc12 [11/63] | < 0.1 | 
17 | N#Cc1nccnc1-c1c(-c2cccc(-c3cc(F)c(C(=O)O)cc3Cl)c2)n(S(=O)(=O)c2ccc(C(F)F)cc2)c2ccc(F)cc12 [11/11] | < 0.1 | 
18 | O=C(O)c1ccc(-c2cccc(-c3c(-c4ccccc4C4COC4)c4cc(F)ccc4n3S(=O)(=O)c3ccc(C(F)F)cc3)c2)c(Cl)c1 [3/59] | < 0.1 | 
19 | N#Cc1cccc(C#N)c1-c1c(-c2cccc(-c3ccc(C(=O)NCC(=O)O)cc3Cl)c2)n(S(=O)(=O)c2ccc(C(F)F)cc2)c2ccc(F)cc12 [Compound 21/3] | < 0.1 | EC50 (LXRα [4]): 0.008 ± 0.007 µM; EC50 (LXRβ [5]): 0.011 ± 0.019 µM
20 | N#Cc1cccc(C#N)c1-c1c(-c2cccc(-c3ccc(C(=O)O)cc3Cl)c2)n(S(=O)(=O)c2ccc(C(F)F)cc2)c2ccc(F)cc12 [11/12] | < 0.1 | 
21 | N#Cc1cccnc1-c1c(-c2cccc(-c3ccc(C(=O)O)cc3Cl)c2)n(S(=O)(=O)c2ccc(C(F)F)cc2)c2ccc(F)cc12 [11/26] | < 0.1 | 
22 | COc1c(C(=O)O)ccc(-c2cccc(-c3c(-c4ccccc4C#N)c4cc(F)ccc4n3S(=O)(=O)c3ccc(C(F)F)cc3)c2)c1Cl [11/27] | < 0.1 | 
23 | CN(CCS(=O)(=O)O)C(=O)c1ccc(-c2cccc(-c3c(-c4c(C#N)cccc4C#N)c4cc(F)ccc4n3S(=O)(=O)c3ccc(C(F)F)cc3)c2)c(Cl)c1 [10/2] | < 0.1 | 
24 | O=C(O)c1ccc(-c2cccc(-c3c(-c4ncccc4C(F)(F)F)c4cc(F)ccc4n3S(=O)(=O)c3ccc(C(F)F)cc3)c2)c(Cl)c1 [11/23] | < 0.1 | 
25 | N#Cc1cccc(C#N)c1-c1c(-c2cccc(-c3ccc(C(=O)O)cc3F)c2)n(S(=O)(=O)c2ccc(C(F)F)cc2)c2ccc(F)cc12 [11/51] | < 0.1 | 
26 | N#Cc1sccc1-c1c(-c2cccc(-c3ccc(C(=O)O)cc3Cl)c2)n(S(=O)(=O)c2ccc(C(F)F)cc2)c2ccc(F)cc12 [11/17] | < 0.1 | EC50 (LXRα [2]): < 0.1 µM
27 | Cc1ccc(S(=O)(=O)n2c(-c3cccc(-c4ccc(C(=O)O)cc4Cl)c3)c(-c3ccsc3C#N)c3cc(F)ccc32)cc1 [3/48] | < 0.1 | liver exposure ([3]; time point 12 h): A (<300 nM); blood/plasma exposure (below LLOQ) ([3]; time point 12 h, number is the LLOQ): (1.2 ng/mL)
28 | N#Cc1cccc(C#N)c1-c1c(-c2cccc(-c3ccc(C(=O)O)cc3Cl)c2)n(S(=O)(=O)c2ccc(C(F)F)cc2)c2ccc(F)cc12 [pre-6/3] |  | EC50 (LXRα [4]): 0.0002 ± 0.0001 µM; EC50 (LXRβ [5]): 0.0004 ± 0.0002 µM
